Experimental data from patent publication US12522596B2, “Compounds as GLP-1R agonists” (Terns Pharmaceuticals, Inc., priority 2021, dated 2026).
“Also recorded” adds a separate entry of the source.

Assays:
[1] = test system: C57BL/6 mice expressing human GLP-1R (hGLP-1R); experiment: Intraperitoneal glucose tolerance test (IPGTT) in hGLP-1R mice; assay type: in vivo, mouse; settings: IP glucose bolus, relative to vehicle control
Experimental: The ability of compounds disclosed herein to modify the glucose tolerance of C57BL/6 mice expressing human GLP-1R (hGLP-1R), was evaluated.
The group design used in this study is described in Table 8.
Acclimation and grouping: Following a one-week washout period after in-life completion of the food intake study, mice were utilized to conduct an intraperitoneal Glucose Tolerance Test (IPGTT); mice remained in their treatment groups from study the food intake study. Baseline fasting glucose levels were used to balance treatment groups (final n=7 per treatment group); outlier mice (n=3), based on abnormal fasting blood glucose and body weight, were used for PK assessment.
Intraperitoneal Glucose Tolerance Test (IPGTT): The mice were placed clean cages with sawdust bedding and fasted overnight. Basal fasting glucose was measured by tail vein nick before dosing in the morning, 3 mice per group of abnormal fasting blood glucose and body weight were used for PK assessment. […] Blood glucose levels were measured at 0 (pre-dose), 15-, 30-, 60-, and 120-min post glucose dosing. […]
Data Processing and analysis: Manual data were transferred into an excel spreadsheet. All values are expressed as mean±S.E.M. The significances of the differences among groups and within groups were evaluated by one-way or two-way ANOVA using Graph Pad statistic software. […]

[2] = test system: mice expressing wildtype (WT) mouse GLP-1R; experiment: Glucose tolerance in mice expressing wildtype mouse GLP-1R; assay type: in vivo; settings: mice expressing WT mouse GLP-1R
Experimental: The glucose tolerance of mice expressing wildtype (WT) mouse GLP-1R was also evaluated after the administration of compound 2 using methods analogous to those described above. The glucose tolerance of mice expressing WT mouse GLP-1R was not affected by Compound 2, whereas the glucose tolerance of mice expressing human GLP-1R was improved by Compound 2 (FIGS. 9 and 10).

human hepatocytes = experiment: Metabolic stability in human hepatocytes; assay type: in vitro ADME; settings: human
Outline: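 Compounds at 1 μM (0.1% DMSO) were incubated with 1×10^6 cells/mL cryopreserved rat or human hepatocytes in DMEM at 37°C for 0–240 min. Parent remaining was measured by LC-MS/MS; k from semi-log decline gave t1/2 and CLint, with CLhep predicted by the well-stirred model.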

CLint relative to reference (human hepatocytes)	half-life relative to standard (human hepatocytes)	Structure (SMILES)	glucose tolerance [1]	glucose tolerance [2]
		N#Cc1ccc(COc2cccc(C3CCN(Cc4nc5ccc(C(=O)O)cc5n4Cc4cncs4)CC3)n2)c(F)c1 [Compound 2]	significantly enhanced the glucose tolerance; also recorded: improved	not affected
no significant difference	no significant difference	N#Cc1ccc(COc2cccc(N3CCN(Cc4nc5ccc(C(=O)O)cc5n4Cc4cncs4)CC3)n2)c(F)c1 [Compound 30]		
